Target: T1, aromatase (Homo sapiens, UniProt P11511)
T1 construct: incubated with 5 ml of a placental microsomes; from tissue; host or cells: placental microsomes
T1 sequence (P11511 1-503): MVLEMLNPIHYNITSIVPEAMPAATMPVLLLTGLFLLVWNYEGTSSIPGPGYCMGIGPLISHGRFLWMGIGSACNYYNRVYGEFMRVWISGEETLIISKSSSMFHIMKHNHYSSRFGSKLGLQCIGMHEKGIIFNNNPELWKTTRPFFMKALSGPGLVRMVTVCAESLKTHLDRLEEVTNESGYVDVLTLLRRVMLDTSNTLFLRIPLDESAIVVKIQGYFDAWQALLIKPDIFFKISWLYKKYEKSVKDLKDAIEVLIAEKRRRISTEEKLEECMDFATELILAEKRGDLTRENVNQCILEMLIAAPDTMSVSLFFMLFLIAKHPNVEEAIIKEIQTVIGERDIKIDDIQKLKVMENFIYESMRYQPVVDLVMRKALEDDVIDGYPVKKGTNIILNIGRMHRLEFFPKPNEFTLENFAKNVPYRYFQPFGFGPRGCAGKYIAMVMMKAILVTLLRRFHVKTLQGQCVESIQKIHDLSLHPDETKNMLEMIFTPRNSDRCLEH
Assay: Inhibition of formic acid formation from [19,19,19-3H]androst-4-ene-3,17-dione by placental microsomes
Assay type: biochemical
Conditions: placental microsomes 1 mg/ml (5 ml), pH 7.2, 37° C., 30 minutes; inhibitor 4 n mole, androstenedione 4 n mole; NADPH
Method: A mixture of [19,19,19-^3 H]androst-4-ene-3,17-dione diluted with cold androstenedione (2.8×10^6 dpm, 4 n mole) and an inhibitor (4 n mole) in ethanol (50 μl) was incubated with 5 ml of a placental microsomes (1 mg/ml of 0.05M tris-HCl, pH 7.2) in the presence of NADPH (5 mg), glucose-6-phosphate (2.5 mg), and glucose-6-phosphate dehydrogenase (3.1 units). The incubations were carried out at 37° C. for 30 minutes in air. A control incubation was carried out as above except that the inhibitor was excluded. The incubation mixture (1 ml) was mixed with 1M phosphoric acid (1 ml), flash frozen and lyophilized. Radioactivity in 0.5 ml of the distilled component was measured (A). And 1.2 ml of the distilled component was mixed with 0.3 ml of 1N sodium hydroxide, flash frozen, and lyophilized. Radioactivity in 0.5 ml of the distilled water was measured (B).

Row | Structure (SMILES) | % Inhibition of formic acid formation [%]
1 | C=C1C=C2CC[C@@H]3[C@H](CC[C@]4(C)[C@@H](O)CC[C@@H]34)[C@@]2(CO)CC1 [Cmpd 5, 3-methylene-androst-4-ene-17β,19-diol] | 55
2 | C=C1C=C2CC[C@H]3[C@@H]4CC[C@H](O)[C@@]4(C)CC[C@@H]3[C@@]2(C)CC1 [Cmpd. 1, 3-methylene-androst-4-ene-17β-ol] | 43
3 | C=C1C=C2CC[C@@H]3[C@H](CC[C@]4(C)C(=O)CC[C@@H]34)[C@@]2(C)CC1 [Cmpd. 3, 3-methylene-androst-4-ene-17-one] | 86
4 | C=C1C=C2CC[C@@H]3[C@H](CC[C@]4(C)C(=O)CC[C@@H]34)[C@@]2(CO)CC1 [Cmpd. 9, 3-methylene-androst-4-ene-19-ol-17-one] | 90
5 | C=C1C=C2CC[C@@H]3[C@H](CC[C@]4(C)C(=O)CC[C@@H]34)[C@@]2(C=O)CC1 [Cmpd. 53, 3-Methylene-androst-4-ene-17,19-dione] | 70

— patent US4546098A, “Estrogen synthesis inhibitors” (The Rockefeller University, priority 1984, dated 1985)
